Values quoted from earlier work, collected in patent US20070238698A1, “Method for manufacturing drinking water having chitosan” (Hsien-Chih Lin, priority 2006, published 2007).

Legend:
Settings in all cases: added to drinking water; experiments to animals
inoculated tumors = tested on: inoculated tumors
[1] = tested on: huge corrosion cell having ability of immunity
enteric microflora = tested on: enteric microflora

In the case of chitosan oligosaccharide, the “effect on inoculated tumors” value (inoculated tumors) is listed as “reduced the inoculated tumors”, the “effect on huge corrosion cell having ability of immunity” value [1] is listed as “increase the huge corrosion cell having ability of immunity” and the “effect on enteric microflora of animals” value (enteric microflora) is listed as “improve the enteric microflora of animals”.
